# According to publication PMC6522510 (Nature Communications, 2019):
# Key:
# Set-up in all cases: species or system AML cell lines (8); Primary HTS, single concentration about 10 uM, Cell Titer Glo viability; log10 luminescence, per cent inhibition relative to cycloheximide control
# Settings in all cases: 72 h, relative to cycloheximide control, log10 luminescence; inhibitor
# CMS = test system: CMS
# MV4-11 = test system: MV4-11
# MOLM-13 = test system: MOLM-13
# M07e = test system: M07e
# CHRF288-11 = test system: CHRF288-11
# ML-2 = test system: ML-2
# U937 = test system: U937
# CMK = test system: CMK
SMILES,CMS %inh (CMS) [%],MV4-11 %inh (MV4-11) [%],MOLM-13 %inh (MOLM-13) [%],M07e %inh (M07e) [%],CHRF288-11 %inh (CHRF288-11) [%],ML-2 %inh (ML-2) [%],U937 %inh (U937) [%],CMK %inh (CMK) [%]
COc1ccc(C2=C(c3cn(C)c4ccccc34)C(=O)NC2=O)cc1OC [SJ000581003-1],5.298,4.678,0.7842,-0.2143,6.661,-1.913,6.689,38.95
O=C1NC(=N[C@@H](CO)c2ccccc2)S/C1=C\c1ccc2ncccc2c1 [SJ000581004-1],4.436,41.34,24.69,12.47,15.94,3.929,9.087,55.48
O=C1NC(=N[C@H](CO)c2ccccc2)S/C1=C\c1ccc2ncccc2c1 [SJ000581004-2],2.583,3.175,7.874,10.69,1.03,2.475,9.058,28.24
Nc1c(C(=O)c2cccc(C#CCO)c2)cnn1-c1ccc(F)cc1 [SJ000581005-1],3.189,-2.436,-0.3055,1.15,-2.428,-1.489,-1.339,-3.113
O=C1NC(=NCc2ccccn2)S/C1=C\c1ccc2ncccc2c1 [SJ000581006-1],-0.1401,1.986,6.642,3.262,-1.509,-0.04041,2.876,2.326
Cn1cc(C2=C(c3c4n(c5ccccc35)CCCCC4)C(=O)NC2=O)c2ccccc21 [SJ000581007-1],-2.233,-1.05,-0.4157,0.1866,-2.847,-3.106,-0.6469,2.966
Cn1cc(C2=C(c3cccc(NCC(O)CO)c3)C(=O)NC2=O)c2cc(Cl)ccc21 (centres unmarked) [SJ000581009-1],98.55,70.02,37.38,19.12,28.92,10.75,8.397,105.4
Cn1cc(C2=C(c3cn(CCCCCO)c4ccccc34)C(=O)NC2=O)c2ccccc21 [SJ000581010-1],1.022,-1.111,6.709,1.341,17.96,-1.548,-0.3264,27.55
Cn1cc(C2=C(c3cn(CCCN=C(N)N)c4ccccc34)C(=O)NC2=O)c2ccccc21 [SJ000581011-1],-3.925,6.352,3.172,-0.6273,6.037,1.035,-0.6406,-5.09
Cc1cc(C)c2c(n1)sc1c(N)ncnc12 [SJ000581012-1],2.019,-4.498,-1.383,-1.463,1.655,-0.0326,3.328,-2.956
